# Target: T1, human type 1 glycine transporter (GlyT1) (Homo sapiens, UniProt P48067)
# T1 construct: T98G cells (glioma cells) expressing human type 1 glycine transporter (GlyT1) were used
# T1 sequence (P48067 1-706): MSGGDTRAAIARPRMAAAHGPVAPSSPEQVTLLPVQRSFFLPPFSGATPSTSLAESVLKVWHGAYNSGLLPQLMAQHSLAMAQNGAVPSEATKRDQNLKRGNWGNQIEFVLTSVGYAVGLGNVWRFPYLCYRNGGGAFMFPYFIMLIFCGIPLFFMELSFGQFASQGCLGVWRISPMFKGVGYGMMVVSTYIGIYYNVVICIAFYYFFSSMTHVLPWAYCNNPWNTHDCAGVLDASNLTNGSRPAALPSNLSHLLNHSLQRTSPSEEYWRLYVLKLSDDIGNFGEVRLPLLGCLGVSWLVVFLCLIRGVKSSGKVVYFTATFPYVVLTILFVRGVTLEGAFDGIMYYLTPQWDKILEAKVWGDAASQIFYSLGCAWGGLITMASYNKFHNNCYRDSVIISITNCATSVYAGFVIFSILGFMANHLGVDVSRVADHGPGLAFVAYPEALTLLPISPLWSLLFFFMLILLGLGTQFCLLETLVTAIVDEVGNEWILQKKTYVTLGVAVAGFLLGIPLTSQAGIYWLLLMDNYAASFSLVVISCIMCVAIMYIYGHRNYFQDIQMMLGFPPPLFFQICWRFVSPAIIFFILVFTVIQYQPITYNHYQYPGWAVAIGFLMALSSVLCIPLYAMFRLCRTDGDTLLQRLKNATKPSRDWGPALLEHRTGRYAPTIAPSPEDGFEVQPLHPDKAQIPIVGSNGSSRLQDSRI
# Experiment: Glycine uptake inhibition experiment ([3H]glycine uptake)
# Assay type: cell-based
# Settings: GlyT1
# How it was run: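 T98G glioma cells expressing human GlyT1 were pretreated 10 min with compound in HEPES buffer pH 7.4 (0.2% BSA), then incubated with compound plus 250 nM final [3H]glycine for 15 min at room temperature. Intracellular radioactivity was counted after NaOH lysis; 10 μM ALX5407 defined non-specific uptake. IC50 came from 10^−9–10^−5 M curves.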
row,SMILES,IC50 [µM]
1,"NC(=O)c1cccc(C(NC(=O)c2nccc(C(F)(F)F)c2Cl)C2(O)CCCC2)c1 (stereo not shown) [Compound 106, N-[(3-carbamoylphenyl)(1-hydroxycyclopentyl)methyl]-3-chloro-4-(trifluoromethyl)pyridine-2-carboxamide]",0.9
2,"O=C(NC(c1cccc(Cl)c1Cl)C1(O)CCCC1)c1nccc(C(F)(F)F)c1Cl (stereo not shown) [Compound 107, 3-chloro-N-[(2,3-dichlorophenyl)(1-hydroxycyclopentyl)methyl]-4-(trifluoromethyl)pyridine-2-carboxamide]",0.039
3,"O=C(NC(c1cc(Cl)ccc1Cl)C1(O)CCCC1)c1nccc(C(F)(F)F)c1Cl (stereo not shown) [Compound 108, 3-chloro-N-[(2,5-dichlorophenyl)(1-hydroxycyclopentyl)methyl]-4-(trifluoromethyl)pyridine-2-carboxamide]",0.068
4,"O=C(N[C@H](c1cccc(Br)c1)[C@]1(O)CC[C@@H](F)CC1)c1nccc(C(F)(F)F)c1Cl [Compound 109, N-[(R)-(3-bromophenyl)(cis-4-fluoro-1-hydroxycyclohexyl)methyl]-3-chloro-4-(trifluoromethyl)pyridine-2-carboxamide]",6.1
5,"O=C(N[C@@H](c1cccc(Br)c1)[C@]1(O)CC[C@@H](F)CC1)c1nccc(C(F)(F)F)c1Cl [Compound 110, N-[(S)-(3-bromophenyl)(cis-4-fluoro-1-hydroxycyclohexyl)methyl]-3-chloro-4-(trifluoromethyl)pyridine-2-carboxamide]",0.095
6,"O=C(NC(c1cc(Cl)cc(Cl)c1)C1(O)CCCC1)c1nccc(C(F)(F)F)c1Cl (stereo not shown) [Compound 111, 3-chloro-N-[(3,5-dichlorophenyl)(1-hydroxycyclopentyl)methyl]-4-(trifluoromethyl)pyridine-2-carboxamide]",0.22
7,"CN(C)Cc1cccc(C(NC(=O)c2nccc(C(F)(F)F)c2Cl)C2(O)CCCC2)c1 (stereo not shown) [Compound 112, 3-chloro-N-[{3-[(dimethylamino)methyl]phenyl}(1-hydroxycyclopentyl)methyl]-4-(trifluoromethyl)pyridine-2-carboxamide]",1.8
8,"CCn1cc(-c2cccc(C(NC(=O)c3cccc(C(F)(F)F)c3Cl)C3(O)CCC(F)(F)CC3)c2)cn1 (stereo not shown) [Compound 118, 2-chloro-N-{(4,4-difluoro-1-hydroxycyclohexyl)[3-(1-ethyl-1H-pyraozl-4-yl)phenyl]methyl}-3-(trifluoromethyl)benzamide]",0.26
9,"CCn1cc(-c2cccc(C(NC(=O)c3cccc(Cl)c3Cl)C3(O)CCC(F)(F)CC3)c2)cn1 (stereo not shown) [Compound 119, 2,3-dichloro-N-{(4,4-difluoro-1-hydroxycyclohexyl)[3-(1-ethyl-1H-pyrazol-4-yl)phenyl]methyl}benzamide]",0.47
10,"CCn1cc(-c2cccc(C(NC(=O)c3c(C)cccc3C)C3(O)CCC(F)(F)CC3)c2)cn1 (stereo not shown) [Compound 120, N{(4,4-difluoro-1-hydroxycyclohexyl)[3-(1-ethyl-1H-pyrazol-4-yl)phenyl]methyl}-2,6-dimethylbenzamide]",0.74
11,"CCn1cc(-c2cccc(C(NC(=O)c3c(Cl)ccc(C(F)(F)F)c3Cl)C3(O)CCC(F)(F)CC3)c2)cn1 (stereo not shown) [Compound 123, 2,6-dichloro-N-{(4,4-difluoro-1-hydroxycyclohexyl)[3-(1-ethyl-1H-pyrazol-4-yl)phenyl]methyl}-3-(trifluoromethyl)benzamide]",0.28
12,"CCn1cc(-c2cccc(C(NC(=O)c3cccc(Cl)c3C)C3(O)CCC(F)(F)CC3)c2)cn1 (stereo not shown) [Compound 124, 3-chloro-N-{(4,4-difluoro-1-hydroxycyclohexyl)[3-(1-ethyl-1H-pyrazol-4-yl)phenyl]methyl}-2-methylbenzamide]",0.31
13,"CCn1cc(-c2cccc(C(NC(=O)c3cccc(C(F)(F)F)c3C)C3(O)CCC(F)(F)CC3)c2)cn1 (stereo not shown) [Compound 125, N-{(4,4-difluoro-1-hydroxycyclohexyl)[3-(1-ethyl-1H-pyrazol-4-yl)phenyl]methyl}-2-methyl-3-(trifluoromethyl)benzamide]",0.35
14,"CCn1cc(-c2cccc(C(NC(=O)c3cccc(C)c3Cl)C3(O)CCC(F)(F)CC3)c2)cn1 (stereo not shown) [Compound 126, 2-chloro-N-{(4,4-difluoro-1-hydroxycyclohexyl)[3-(1-ethyl-1H-pyrazol-4-yl)phenyl]methyl}-3-methylbenzamide]",0.72
15,"CCn1cc(-c2cccc(C(NC(=O)c3cc(Cl)ccc3Cl)C3(O)CCC(F)(F)CC3)c2)cn1 (stereo not shown) [Compound 127, 2,5-dichloro-N-{(4,4-difluoro-1-hydroxycyclohexyl)[3-(1-ethyl-1H-pyrazol-4-yl)phenyl]methyl}benzamide]",0.66
16,"O=C(NC(c1cccc(Cl)c1)C1(O)CCC(O)C1)c1nccc(C(F)(F)F)c1Cl (stereo not shown) [Compound 128, 3-chloro-N-[(3-chlorophenyl)(1,3-dihydroxycyclopentyl)methyl]-4-(trifluoromethyl)pyridine-2-carboxamide]",1.1
17,"CC(C)n1cc(-c2cccc(C(NC(=O)c3nccc(C(F)(F)F)c3Cl)C3(O)CCC(F)(F)CC3)c2)cn1 (stereo not shown) [Compound 129, 3-chloro-N-[(4,4-difluoro-1-hydroxycyclohexyl){3-[1-(propan-2-yl)-1H-pyrazol-4-yl]phenyl}methyl]-4-(trifluoromethyl)pyridine-2-carboxamide]",0.099
18,"O=C1CCC(O)(C(NC(=O)c2nccc(C(F)(F)F)c2Cl)c2cccc(Cl)c2)C1 (stereo not shown) [Compound 130, 3-chloro-N-[(3-chlorophenyl)(1-hydroxy-3-oxocyclopentyl)methyl]-4-(trifluoromethyl)pyridine-2-carboxamide]",1.1
19,"O=C(NC(c1cccc(Cl)c1Cl)C1(O)CCC(F)(F)CC1)c1nccc(C(F)(F)F)c1Cl (stereo not shown) [Compound 131, 3-chloro-N-[(2,3-dichlorophenyl)(4,4-difluoro-1-hydroxycyclohexyl)methyl]-4-(trifluoromethyl)pyridine-2-carboxamide]",0.16
20,"O=C(NC(c1cccc(-c2cnn(CC(F)(F)F)c2)c1)C1(O)CCC(F)(F)CC1)c1nccc(C(F)(F)F)c1Cl (stereo not shown) [Compound 132, 3-chloro-N-[(4,4-difluoro-1-hydroxycyclohexyl){3-[1-(2,2,2-trifluoroethyl)-1H-pyrazol-4-yl]phenyl}methyl]-4-(trifluoromethyl)pyridine-2-carboxamide]",0.13
21,"CCn1cc(-c2cccc(C(NC(=O)c3cccc4ccccc34)C3(O)CCC(F)(F)CC3)c2)cn1 (stereo not shown) [Compound 138, N-{(4,4-difluoro-1-hydroxycyclohexyl)[3-(1-ethyl-1H-pyrazol-4-yl)phenyl]methyl}naphthalene-1-carboxamide]",0.84
22,"CCn1cc(-c2cccc(C(NC(=O)c3nccc4ccccc34)C3(O)CCC(F)(F)CC3)c2)cn1 (stereo not shown) [Compound 139, N-{(4,4-difluoro-1-hydroxycyclohexyl)[3-(1-ethyl-1H-pyrazol-4-yl)phenyl]methyl}isoquinoline-1-carboxamide]",0.43
23,"CCn1cc(-c2cccc(C(NC(=O)c3ccc(C(F)(F)F)nc3C)C3(O)CCC(F)(F)CC3)c2)cn1 (stereo not shown) [Compound 140, N-{(4,4-difluoro-1-hydroxycyclohexyl)[3-(1-ethyl-1H-pyrazol-4-yl)phenyl]methyl}-2-methyl-6-(trifluoromethyl)pyridine-3-carboxamide]",3.3
24,"CCn1cc(-c2cccc(C(NC(=O)c3nccnc3Cl)C3(O)CCC(F)(F)CC3)c2)cn1 (stereo not shown) [Compound 141, 3-chloro-N-{(4,4-difluoro-1-hydroxycyclohexyl)[3-(1-ethyl-1H-pyrazol-4-yl)phenyl]methyl}pyradine-2-carboxamide]",3.1
25,"O=C(NC(c1cccc(Br)c1)C1(O)CC=CCC1)c1nccc(C(F)(F)F)c1Cl (stereo not shown) [Compound 142, N-[(3-bromophenyl)(1-hydroxycyclohex-3-en-1-yl)methyl]-3-chloro-4-(trifluoromethyl)pyridine-2-carboxamide]",0.41
26,"O=C(NC(c1cccc(-c2ccccn2)c1)C1(O)CCC(F)(F)CC1)c1nccc(C(F)(F)F)c1Cl (stereo not shown) [Compound 143, 3-chloro-N-{(4,4-difluoro-1-hydroxycyclohexyl)[3-(pyridin-2-yl)phenyl]methyl}-4-(trifluoromethyl)pyridine-2-carboxamide]",0.21
27,"O=C(NC(c1cccc(-c2cccnc2)c1)C1(O)CCC(F)(F)CC1)c1nccc(C(F)(F)F)c1Cl (stereo not shown) [Compound 146, 3-chloro-N-{(4,4-difluoro-1-hydroxycyclohexyl)[3-(pyridin-3-yl)phenyl]methyl}-4-(trifluoromethyl)pyridine-2-carboxamide]",0.14
28,"O=C(NC(c1cc(Cl)ccc1Cl)C1(O)CCC(F)(F)CC1)c1nccc(C(F)(F)F)c1Cl (stereo not shown) [Compound 148, 3-chloro-N-[(2,5-dichlorophenyl)(4,4-difluoro-1-hydroxycyclohexyl)methyl]-4-(trifluoromethyl)pyridine-2-carboxamide]",0.26
